Assay results reported in patent publication US12194080B2, “Methods for identification, assessment, prevention, and treatment of metabolic disorders using PM20D1 and N-lipidated amino acids” (Dana-Farber Cancer Institute, Inc., priority 2015, dated 2025).

Tests used:
[1] = tested on: Diet induced obese (DIO) mice; test: Chronic daily i.p. administration of N-acyl amino acids to DIO mice (body weight, food intake, body composition, GTT); type: in vivo, mouse; details: for body weight lost: after 8 days treatment, mean±SEM
Method: (§1) Animal experiments were performed according to procedures approved by the Beth Israel Deaconess Medical Center IACUC. Mice were maintained in 12 h light-dark cycles at 22° C. and fed a standard irradiated rodent chow diet. All experiments on wild-type mice were performed with male C57BL/6 mice purchased from Jackson Laboratories, except for the AAV experiments, which were performed with male C57BL/6 mice from Charles River. UCP1-KO (stock #017476) and 16-20 week DIO mice (stock #380050) were obtained from Jackson Laboratories. For AAV injection experiments, mice were gently warmed using a 250 W clear infrared heat lamp, immobilized, and injected via tail vein with 10^10 virus/mouse (diluted in saline) in a total volume of 100 μl/mouse. Where indicated, mice were placed on high-fat diet (60% fat, Research Diets). For cold exposure experiments, mice were group housed and placed at 4° C. for the indicated times. For the preparation of C18:1-Phe for in vivo injections, compounds were dissolved in 18:1:1 v/v/v saline:Kolliphor® EL (Sigma Aldrich):DMSO and sonicated until homogeneous. Mice were administered compounds at 5 μl/g body weight at the indicated doses. For all injection experiments, mice were mock injected with saline daily for 3 days prior to the start of the experiments. For glucose tolerance tests (GTTs), mice received their final dose of compound the day prior to the assay and were then fasted overnight. Glucose was administered at 1.5 g/kg.
(§2) Energy expenditure, O2 consumption, CO2 production, respiratory exchange ratio, total locomotor activity, and food intake measurements were made with a 16-cage Columbus Instruments Oxymax Comprehensive Lab Animal Monitoring System (CLAMS) at ambient room temperature (21-23° C.). Mice were acclimated for one day in metabolic cages prior to data collection. Whole-body composition was assessed with an EchoMRI™ 3-in-1 on conscious mice.

C2C12 cells = test: Cellular oxygen consumption rate (uncoupled respiration), C2C12 cells; type: cell-based, mouse; details: 50 μM, after oligomycin 1 μM
Method: (§3) C2C12, U2O5, and 293A cells were cultured in DMEM with 10% FBS and pen/strep. Primary inguinal (iWAT) and brown (BAT) adipocytes were obtained as follows. The stromal-vascular fraction of inguinal (iWAT) pad from 4-12 week old male mice was dissected, minced, and digested for 45 min. at 37° C. in PBS containing 10 mM CaCl2, 2.4 U/ml dispase II (Roche), and 1.5 U/ml collagenase D (Roche). The stromal-vascular fraction of brown fat (BAT) pads from newborn (P1-P14) pups was dissected, minced, and digested for 45 min at 37° C. in PBS containing 1.3 mM CaCl2, 120 mM NaCl, 5 mM KCl, 5 mM glucose, 100 mM HEPES, 4% BSA, and 1.5 mg/ml collagenase B (Roche). Digested tissue was diluted with adipocyte culture media (DMEM/F-12, GlutaMAX™ supplement, Life Technologies, with 10% FBS and pen/strep) and centrifuged (600×g for 10 min.). The pellet was resuspended in 10 ml adipocyte culture media, strained through a 40 μm filter, and plated. Differentiation was induced by application of an adipogenic cocktail containing 5 μg/ml insulin (Sigma), 5 μM dexamethasone (Sigma), 250 μM isobutylmethylxanthine (Sigma), and 1 μM rosiglitazone (Cayman) for 2 days. Two days after induction, cells were maintained in adipocyte culture media containing 5 μg/ml insulin and 1 μM rosiglitazone.
(§4) Cellular oxygen consumption rates were determined using an XF24 Extracellular Flux Analyzer (Seahorse Biosciences). Oligomycin was purchased from EMD Millipore, and FCCP and rotenone were purchased from Sigma. C2C12 or U2OS cells were seeded at 30,000 or 50,000 cells/well, respectively in an XF24 cell culture microplate (V7-PS, Seahorse Bioscience) and analyzed the following day. Primary iWAT or BAT adipocytes were seeded at 15,000 cells/well, differentiation was induced the following day as described, and the cells were analyzed on day 5. On the day of analysis, the cells were washed once with Seahorse respiration buffer (8.3 g/1 DMEM, 1.8 g/l NaCl, 1 mM pyruvate, 20 mM glucose, pen/strep), placed in 0.5 ml Seahorse respiration buffer, and incubated in a CO2-free incubator for 1 hr. Port injection solutions were prepared as follows (final concentrations in assay in parentheses): 10 μM oligomycin (1 μM final), […] amino acid (50 μM final), 2 μM FCCP (0.2 μM final), and 30 μM rotenone (3 μM final). The Seahorse program was run as follows: basal measurement, 3 cycles; inject port A (oligomycin), 3 cycles; inject port B (compounds), 8 cycles; inject port C (FCCP), 3 cycles; inject port D (rotenone), 3 cycles. Each cycle consisted of mix 4 min, wait 0 min, and measure 2 min. For data expressed as a percentage of oligomycin-treated basal, the respiration at cycle 6 was normalized to 100%, and the maximum respiration at any time point between cycles 7 and 15 inclusive was used.

[2] = tested on: Diet induced obese (DIO) mice; test: Indirect calorimetry (CLAMS) of high fat diet/DIO mice treated with N-acyl amino acids; type: in vivo, mouse
Method: as §1, §2

[3] = tested on: primary inguinal fat cells, primary BAT cells, C2C12 cells, and U2OS cells; test: Uncoupled respiration cellular assays (variety of cell types); type: cell-based; details: N-acyl amino acids at 10-100 uM
Method: as §4

U2OS cells = test: Cellular oxygen consumption rate (uncoupled respiration), U2OS cells; type: cell-based, human; details: 50 μM, after oligomycin 1 μM
Method: as §3, §4

mouse PM20D1 [4] = molecular target: T1, mouse PM20D1 (Mus musculus, UniProt Q8C165); test: In vitro PM20D1-catalyzed N-acyl amino acid hydrolysis; type: biochemical; details: N-acyl amide substrate 100 μM
T1 construct: Full-length mouse Pm20d1 cDNA (GE Dharmacon) was subcloned with an in-frame C-terminal 6× His and FLAG® tag; made in house; host or cells: 293A (HEK293A) cells stably infected with retrovirus
T1 sequence (Q8C165 25-503): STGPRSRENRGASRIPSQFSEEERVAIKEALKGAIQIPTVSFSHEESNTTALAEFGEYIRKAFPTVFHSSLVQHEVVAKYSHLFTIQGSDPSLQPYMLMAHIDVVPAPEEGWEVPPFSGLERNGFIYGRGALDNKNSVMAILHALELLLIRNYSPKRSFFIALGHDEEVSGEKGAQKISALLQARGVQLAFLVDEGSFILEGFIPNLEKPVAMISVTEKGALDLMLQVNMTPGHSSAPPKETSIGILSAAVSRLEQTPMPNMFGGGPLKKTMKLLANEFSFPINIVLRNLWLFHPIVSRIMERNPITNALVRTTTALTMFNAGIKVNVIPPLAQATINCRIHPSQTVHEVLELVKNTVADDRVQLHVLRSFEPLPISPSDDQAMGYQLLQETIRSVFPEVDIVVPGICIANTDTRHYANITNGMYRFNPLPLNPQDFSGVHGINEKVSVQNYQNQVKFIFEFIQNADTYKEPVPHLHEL
Method: (§5) The concentrated media was centrifuged to remove debris (600×g, 10 min, 4° C.) and the supernatant containing PM20D1-flag was decanted into a new tube. PM20D1-Flag was immunoaffinity purified overnight at 4° C. from the concentrated media using magnetic Flag-M2 beads (Sigma Aldrich). The beads were collected, washed three times in PBS, eluted with 3× Flag peptide ([…] in PBS, Sigma Aldrich), aliquoted, and stored at −80° C. For the purification of human PM20D1-flag, hPM20D1-flag plasmid (Origene) was transiently transfected into 293A cells. After two days, the media was changed, harvested 24 h later, concentrated, and purified exactly as described above.
(§6) In vitro PM20D1-catalyzed synthesis of N-acyl amino acids was measured by incubating purified PM20D1 protein with oleate (1.5 mM) and phenylalanine (0.1 mM) in PBS (to 100 μl final volume) at 37° C. for 1.5 hrs. In vitro PM20D1-catalyzed N-acyl amino acid hydrolysis was measured by incubating purified PM20D1 protein with the indicated N-acyl amino acid (0.1 mM) in PBS (to 100 μl final volume) at 37° C. for 1.5 hrs. Reactions were terminated by placing the vials at −80° C. and the products generated in vitro were analyzed by mass spectroscopy (MS).
(§7) Briefly, frozen serum (30 μl) for polar metabolomic analyses were extracted in 160 μl of 1:1 acetonitrile/methanol with inclusion of internal standard D3, ^15N-serine (1 nmol). Activity assays (100 μl) were extracted in 400 μl 1:1 acetonitrile/methanol. Following 30 s of thorough vortexing and 1 min of bath sonication, the polar metabolite fraction (supernatant) was isolated by centrifugation at 13,000×g for 10 min. Ten μl of this supernatant was analyzed by SRM-based targeted LC-MS/MS, or untargeted LC-MS.
(§8) For separation of polar metabolites, normal-phase chromatography was performed with a […] column (50 mm×4.60 mm, Phenomenex). Mobile phases were as follows: Buffer A, acetonitrile; Buffer B, 95:5 water/acetonitrile with 0.1% formic acid or 0.2% ammonium hydroxide with 50 mM ammonium acetate for positive and negative ionization mode, respectively. The flow rate for each run started at 0.2 ml/min for 2 min, followed by a gradient starting at 0% B and increasing linearly to 100% B over the course of 15 min with a flow rate of 0.7 ml/min, followed by an isocratic gradient of 100% B for 10 min at 0.7 ml/min before equilibrating for 5 min at 0% B with a flow rate of 0.7 ml/min. MS analysis was performed with an electrospray ionization (ESI) source on an Agilent 6430 QQQ LC—MS/MS. The capillary voltage was set to 3.5 kV, and the fragmentor voltage was set to 100 V. The drying gas temperature was 325° C., the drying gas flow rate was 10 l/min, and the nebulizer pressure was 45 psi. For polar targeted and untargeted metabolomic analysis, representative metabolites were quantified by SRM of the transition from precursor to product ions (corresponding to amino acid fragment) at associated collision energies. Several representative fragmentation ions are as follows: C18:1-Ala, 352>88; C18:1-Gly, 338>74; C18:1-Phe, 428>164; C18:1-Leu/Ile, 394>130; C20:4-Phe, 450>164; C20:4-Leu/Ile, 416>130. Untargeted LC-MS was performed by scanning a mass range of m/z 50-1200, and data were exported as mzdata files and uploaded to XCMSOnline (xcmsserver.nutr.berkeley.edu) to identify metabolites that were differentially changed. For targeted metabolomics analysis, metabolites were quantified by integrating the area under the peak and were normalized to internal standard values corresponding to 1 nmol D3, ^15N-serine.

mouse PM20D1 [5] = molecular target: T1, mouse PM20D1; test: In vitro PM20D1-catalyzed synthesis of N-acyl amino acids; type: biochemical; details: head group 100 μM; oleate or arachidonate 1.5 mM, C18:1-CoA 0.7 mM
Method: as §5, §6, §7, §8

[6] = tested on: differentiated primary iWAT cells; test: Cellular oxygen consumption rate (Seahorse XF24), differentiated primary iWAT adipocytes; type: cell-based, mouse; details: 50 μM, in presence of oligomycin; control fatty acid
Method: as §3, §4

[7] = daily i.p.: C18:1-Leu 25, C18:1-Phe 30, C20:4-Gly 15 mg/kg/day

Structure (SMILES): CCCCCCCC/C=C\CCCCCCCC(=O)N[C@@H](CC(C)C)C(=O)O [C18:1-Leu, Oleoyl-L-leucine]
- reduction of food intake versus vehicle-treated mice ([1]; 25 mg/kg, i.p., daily): 17%
- body weight lost ([1]; 25 mg/kg, i.p., daily): 4.1 ± 0.3 g
- body composition analysis (weight loss) ([1]; 25 mg/kg/day i.p., MRI): entirely accounted for by a difference in fat mass
- GTT ([1]; 25 mg/kg/day i.p., glucose 1.5 g/kg, versus vehicle- or oleate-treated mice): improvements
- uncoupling activity (uncoupled respiration) (C2C12 cells): significantly more potent than the free fatty acid alone
- RER ([2]; C18:1-Leu 25 mg/kg/day i.p.): significantly lower
- VCO2 ([2]; C18:1-Leu 25 mg/kg/day i.p.): significantly augmented
- food intake over the final two days of the experiment ([2]; C18:1-Leu 25 mg/kg/day i.p., metabolic cages): reduced food intake
- VO2 [2, 7]: significantly augmented
- movement [2, 7]: slightly reduced

Structure (SMILES): CCCCCCCCCCCCCCCCCCCC(=O)N[C@@H](Cc1ccccc1)C(=O)O [N-arachidoyl phenylalanine, Icosanoyl-L-phenylalanine]
- uncoupled respiration in cells [3]: inactive
- uncoupling activity (uncoupled respiration) (U2OS cells): completely lacked uncoupling activity

Structure (SMILES): CCCCCCCCCCCC(=O)N[C@@H](Cc1ccccc1)C(=O)O [N-lauroyl phenylalanine, Dodecanoyl-L-phenylalanine]
- uncoupled respiration in cells [3]: inactive
- uncoupling activity (uncoupled respiration) (U2OS cells): completely lacked uncoupling activity

Structure (SMILES): CCCCCCCC/C=C\CCCCCCCC(=O)NCCO [N-oleoyl ethanolamine, reference compound]
- uncoupled respiration in cells [3]: inactive
- substrate of the PM20D1 hydrolysis reaction (mouse PM20D1 [4]): does not hydrolyze
- substrate of the PM20D1 hydrolysis reaction (mouse PM20D1 [4]; listed as C18:1-EA): not a PM20D1 substrate

Structure (SMILES): CCCCCCCCCCCCCCCC(=O)N[C@@H](Cc1ccccc1)C(=O)O [N-palmitoyl phenylalanine, Palmitoyl-L-phenylalanine]
- uncoupled respiration in cells [3]: increased uncoupled respiration
- uncoupling activity (uncoupled respiration) (U2OS cells): possessed uncoupling activity

Structure (SMILES): CCCCC/C=C\C/C=C\C/C=C\C/C=C\CCCC(=O)O [arachidonate, arachidonic acid, reference compound]
- substrate of the PM20D1 synthase reaction (mouse PM20D1 [5]): capable of using arachidonate as a fatty acid donor
- oxygen consumption rate [6]: increased the oxygen consumption rate very modestly

Structure (SMILES): CCCCCCCC/C=C\CCCCCCCC(=O)[O-].[Na+] [oleate, sodium oleate, reference compound]
- uncoupled respiration in cells [3]: inactive
- substrate of the PM20D1 synthase reaction (mouse PM20D1 [5]): strong preference for free oleate over oleoyl-coenzyme A
- body weight lost ([1]; 25 mg/kg, i.p., daily): 0.3 ± 0.2 g
